This assay deals with HCV genotype-1a variant with glutamine 30 changed to glutamate in the NS5A protein. It counts as cell-based. To be noted: test compound titrated with BMS-790052 fixed at 200 nM; genotype 1a Q30E replicon. In outline: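 Synergy was assessed by combining several fixed amounts of an NS5A-targeting compound with a titration of the second compound of interest.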
In general terms: A replicon is a self-replicating genome or part of one, used to study replication in cells.

As for `CC(C)[C@H](NC(=O)C1(C(F)(F)F)CCCC1)c1ncc(-c2ccc(-c3ccc(-c4cnc([C@@H](NC(=O)C5(C(F)(F)F)CCCC5)C(C)C)[nH]4)cc3)cc2)[nH]1` [Compound P-80], the “Fold-Synergistic 1a (Q30E)” value is over 100 fold.
As for `COC(=O)N[C@H](C(=O)NC1(c2nc(-c3ccc(-c4ccc(-c5c[nH]c(C6(NC(=O)[C@@H](NC(=O)OC)C(C)C)CCC6)n5)cc4)cc3)c[nH]2)CCC1)C(C)C` [Compound N-10], the “Fold-Synergistic 1a (Q30E)” value is reported as under 10 fold.
For the molecule `CC1(C(=O)N[C@H](c2nc(-c3ccc(-c4ccc(-c5c[nH]c([C@@H](NC(=O)C6(C)CCCCC6O)C(C)(C)C)n5)cc4)cc3)c[nH]2)C(C)(C)C)CCCCC1O` (single isomer, unassigned) [Compound Y-106], the “Fold-Synergistic 1a (Q30E)” value is over 100 fold.
Regarding `COC(=O)N[C@H](Cc1ccccc1)C(=O)N[C@H](c1ncc(-c2ccc(-c3ccc(-c4cnc([C@@H](NC(=O)[C@@H](Cc5ccccc5)NC(=O)OC)C(C)C)[nH]4)cc3)cc2)[nH]1)C(C)C` [Compound P-106], the “Fold-Synergistic 1a (Q30E)” value was over 100 fold.
As for `CC(C)[C@H](NC(=O)C(C)(C)C)c1nc2ccc(C#Cc3ccc4nc([C@@H](NC(=O)C(C)(C)C)C(C)C)[nH]c4c3)cc2[nH]1.O=C(O)C(F)(F)F` [Compound B43], the “Fold-Synergistic 1a (Q30E)” value is over 100 fold.
`O=C(Oc1ccc2ccccc2c1)N1CCC[C@H]1c1ncc(-c2ccc(-c3ccc(-c4cnc([C@@H]5CCCN5C(=O)Oc5ccc6ccccc6c5)[nH]4)cc3)cc2)[nH]1` [Compound S-226]: the “Fold-Synergistic 1a (Q30E)” value is given as over 100 fold.
As to `CC(C)CC(=O)N1CCC[C@H]1c1ncc(-c2ccc(-c3ccc(-c4cnc([C@@H](NC(=O)C(C)(C)C)C(C)C)[nH]4)cc3)cc2)[nH]1` [Compound Y-14], the “Fold-Synergistic 1a (Q30E)” value was over 100 fold.
Take `CC(C)(C)[C@H](NC(=O)C1CCC(F)(F)CC1)c1ncc(-c2ccc(-c3ccc4c(ccc5nc([C@@H](NC(=O)C6CCC(F)(F)CC6)C(C)(C)C)[nH]c54)c3)cc2)[nH]1` [Compound B17]: the “Fold-Synergistic 1a (Q30E)” value is reported as over 100 fold.
With `CC(C)(C)[C@H](NC(=O)C1CCOC1)c1nc(-c2ccc(-c3ccc(-c4c[nH]c([C@@H](NC(=O)C5CCOC5)C(C)(C)C)n4)cc3)cc2)c[nH]1` (stereo partly shown) [Compound W-129] the figure was over 10 fold.
Regarding `CC(C)[C@H](NC(=O)C(C)(C)C)c1nc(-c2ccc(-c3ccc(-c4c[nH]c([C@@H](NC(=O)C(C)(C)C)C(C)C)n4)cc3F)cc2)c[nH]1.O=C(O)C(F)(F)F` [Compound N-100], the “Fold-Synergistic 1a (Q30E)” value was over 100 fold.
Consider `COC(=O)N[C@H](C(=O)N1CCC[C@H]1c1nc(-c2ccc(-c3ccc(-c4c[nH]c([C@@H](NC(=O)C5CCC(F)(F)CC5)C(C)C)n4)cc3)cc2)c[nH]1)C(C)C` [Compound Y-49], for which the “Fold-Synergistic 1a (Q30E)” value is given as over 100 fold.
Consider `O=C(C1Cc2ccccc2O1)N1CCC[C@H]1c1ncc(-c2ccc(-c3ccc(-c4cnc([C@@H]5CCCN5C(=O)C5Cc6ccccc6O5)[nH]4)cc3)cc2)[nH]1` (stereo partly shown) [Compound S-157], for which the “Fold-Synergistic 1a (Q30E)” value is given as over 10 fold.
With `COCC(=O)NC1(C(=O)N[C@H](c2nc(-c3ccc(-c4ccc(-c5c[nH]c([C@@H](NC(=O)C6(NC(=O)COC)CCCCC6)C(C)(C)C)n5)cc4)cc3)c[nH]2)C(C)(C)C)CCCCC1` [Compound W-263] the figure was over 100 fold.
In the case of `CC1(C)CCN(C(=O)C(=O)N2CCC(F)(F)CC2)C1c1nc(-c2ccc(-c3ccc(-c4c[nH]c(C5N(C(=O)C(=O)N6CCC(F)(F)CC6)CCC5(C)C)n4)cc3)cc2)c[nH]1` (stereo not shown) [Compound W-218], the “Fold-Synergistic 1a (Q30E)” value is given as over 10 fold.
For the molecule `CC(C)(C)[C@H](NC(=O)C1(NC(=O)CC2CC2)CCCCC1)c1nc(-c2ccc(-c3ccc(-c4c[nH]c([C@@H](NC(=O)C5(NC(=O)CC6CC6)CCCCC5)C(C)(C)C)n4)cc3)cc2)c[nH]1` [Compound W-276], the “Fold-Synergistic 1a (Q30E)” value is listed as over 100 fold.
In the case of `CC(C)[C@H](NC(=O)C(C)(C)C)c1ncc(-c2ccc(-c3ccc(-c4cnc([C@@H](NC(=O)C(C)(C)C)C(C)C)[nH]4)c(OC(F)F)c3)cc2)[nH]1` [Compound Y-11], the “Fold-Synergistic 1a (Q30E)” value was over 100 fold.
Regarding `CC(C)(C)[C@H](NC(=O)OC1CCC(F)(F)CC1)c1nc(-c2ccc(-c3ccc(-c4c[nH]c([C@@H](NC(=O)OC5CCC(F)(F)CC5)C(C)(C)C)n4)cc3)cc2)c[nH]1` [Compound P-138], the “Fold-Synergistic 1a (Q30E)” value is over 100 fold.
Turning to `CC1(C(=O)NC(c2nc(-c3ccc(-c4ccc(-c5c[nH]c(C(NC(=O)C6(C)CCCO6)C(C)(C)C)n5)cc4)cc3)c[nH]2)C(C)(C)C)CCCO1.O=C(O)C(F)(F)F.O=C(O)C(F)(F)F` (mixture of isomers) [Compound L-69], the “Fold-Synergistic 1a (Q30E)” value was over 100 fold.
Regarding `CC(C)(C)[C@H](NC(=O)[C@@]1(C)CCC(F)(F)CO1)c1ncc(-c2ccc(C34CCC(c5cnc([C@@H](NC(=O)[C@@]6(C)CCC(F)(F)CO6)C(C)(C)C)[nH]5)(CC3)CC4)cc2)[nH]1` [Compound B-186, (R)—N—((S)-1-(5-(4-(4-(2-((S)-1-((R)-5,5-difluoro-2-methyltetrahydro-2H-pyran-2-carboxamido)-2,2-dimethylpropyl)-1H-imidazol-5-yl)bicyclo[2.2.2]octan-1-yl)phenyl)-1H-imidazol-2-yl)-2,2-dimethylpropyl)-5,5-difluoro-2-methyltetrahydro-2H-pyran-2-carboxamide], the “Fold-Synergistic 1a (Q30E)” value is given as over 100 fold.
The figure for `CC(C)(C)[C@H](NC(=O)C1CCC(F)(F)CC1)c1nc2ccc(C#CC#Cc3ccc4nc([C@@H](NC(=O)C5CCC(F)(F)CC5)C(C)(C)C)[nH]c4c3)cc2[nH]1` [Compound B46] is over 100 fold.
With `CC(C)(C)C(NC(=O)C1CC(F)CN1C(=O)OC1CCCC1)c1nc(-c2ccc(-c3ccc(-c4c[nH]c(C(NC(=O)C5CC(F)CN5C(=O)OC5CCCC5)C(C)(C)C)n4)cc3)cc2)c[nH]1` (stereo not shown) [Compound W-111] the figure was over 100 fold.
With `CC(C)CC(=O)NC1(c2ncc(-c3ccc(-c4ccc(-c5cnc(C6(NC(=O)CC(C)C)CC=CC6)[nH]5)cc4)cc3)[nH]2)CC=CC1.O=C(O)C(F)(F)F.O=C(O)C(F)(F)F` [Compound N-16] the figure was under 10 fold; with `CC(C)OC(=O)N1CCC[C@H]1c1ncc(-c2ccc(-c3ccc(-c4cnc([C@@H]5CCCN5C(=O)OC(C)C)[nH]4)cc3)cc2)[nH]1` [Compound S-220], over 10 fold.
In the case of `CC(C)(C)[C@H](NC(=O)C(=O)N1CCCC(F)(F)C1)c1nc(-c2ccc(-c3ccc(-c4c[nH]c([C@@H](NC(=O)C(=O)N5CCCC(F)(F)C5)C(C)(C)C)n4)cc3)cc2)c[nH]1` [Compound W-46A], the “Fold-Synergistic 1a (Q30E)” value was over 100 fold.
Consider `CC(C)(C)[C@H](NC(=O)C1(CO)CCCO1)c1nc(-c2ccc(-c3ccc(-c4c[nH]c([C@@H](NC(=O)C5(CO)CCCO5)C(C)(C)C)n4)cc3)cc2)c[nH]1` (single isomer, unassigned) [Compound Y-111], for which the “Fold-Synergistic 1a (Q30E)” value is listed as over 100 fold.
For `CC(C)[C@H](NC(=O)c1ccc(Cl)cc1)c1ncc(-c2ccc(-c3ccc(-c4cnc([C@@H](NC(=O)c5ccc(Cl)cc5)C(C)C)[nH]4)cc3)cc2)[nH]1` [Compound S-83], the “Fold-Synergistic 1a (Q30E)” value is listed as over 100 fold.
With `CN(C(=O)C(=O)N[C@H](c1nc(-c2ccc(-c3ccc(-c4c[nH]c([C@@H](NC(=O)C(=O)N(C)C5CC5)C(C)(C)C)n4)cc3)cc2)c[nH]1)C(C)(C)C)C1CC1` [Compound W-50] the figure was over 100 fold; with `CC(C)[C@H](NC(=O)c1ccccc1F)c1ncc(-c2ccc(-c3ccc(-c4cnc([C@@H](NC(=O)c5ccccc5F)C(C)C)[nH]4)cc3)cc2)[nH]1` [Compound P-63], over 100 fold; with `COC(c1ccccc1)C1(C(=O)N[C@H](c2nc(-c3ccc(-c4ccc(-c5c[nH]c([C@@H](NC(=O)C6(C(OC)c7ccccc7)CC6)C(C)(C)C)n5)cc4)cc3)c[nH]2)C(C)(C)C)CC1` (single isomer, unassigned) [Compound N-137C], over 100 fold.
Regarding `CC(C)[C@H](NC(=O)c1ccccc1C#N)c1ncc(-c2ccc(-c3ccc(-c4cnc([C@@H](NC(=O)c5ccccc5C#N)C(C)C)[nH]4)cc3)cc2)[nH]1` [Compound S-94], the “Fold-Synergistic 1a (Q30E)” value was over 100 fold.
`CC1(C)C2CCC(C(=O)N[C@H](c3nc(-c4ccc(-c5ccc(-c6c[nH]c([C@@H](NC(=O)C78CCC(C7)C(C)(C)C8O)C7(C)CC7)n6)cc5)cc4)c[nH]3)C3(C)CC3)(C2)C1O` (single isomer, unassigned) [Compound Y-118]: the “Fold-Synergistic 1a (Q30E)” value is on record as over 100 fold.
Regarding `Cc1cc(-c2ccc(-c3c[nH]c([C@@H](NC(=O)C(C)(C)C)C(C)(C)C)n3)cc2)ccc1-c1c[nH]c([C@@H](NC(=O)C(C)(C)C)C(C)(C)C)n1.O=C(O)C(F)(F)F` [Compound N-86], the “Fold-Synergistic 1a (Q30E)” value is on record as over 100 fold.
Regarding `O=C(C(=O)N1C[C@H](O)C[C@H]1c1nc(-c2ccc(-c3ccc(-c4c[nH]c([C@@H]5C[C@@H](O)CN5C(=O)C(=O)N5CCC(F)(F)CC5)n4)cc3)cc2)c[nH]1)N1CCC(F)(F)CC1` [Compound L-142], the “Fold-Synergistic 1a (Q30E)” value was over 100 fold.
Regarding `CC(C)(C)OC(=O)C(=O)N[C@H](c1nc(-c2ccc(-c3ccc(-c4c[nH]c([C@@H](NC(=O)C(=O)OC(C)(C)C)C(C)(C)C)n4)cc3)cc2)c[nH]1)C(C)(C)C` [Compound W-43A], the “Fold-Synergistic 1a (Q30E)” value is over 100 fold.
In the case of `CC(C)(C)[C@H](NC(=O)C(C)(C)S(C)(=O)=O)c1nc(-c2ccc(-c3ccc(-c4cnc([C@@H](NC(=O)C(C)(C)S(C)(=O)=O)C(C)(C)C)[nH]4)cc3)cc2)c[nH]1` [Compound B-180], the “Fold-Synergistic 1a (Q30E)” value is on record as over 100 fold.
Regarding `COC1(C(=O)NC(c2nc(-c3ccc(-c4ccc(-c5c[nH]c(C(NC(=O)C6(OC)CCOC6)C(C)(C)C)n5)cc4)cc3)c[nH]2)C(C)(C)C)CCOC1` (mixture of isomers) [Compound N-158], the “Fold-Synergistic 1a (Q30E)” value is over 100 fold.
As to `O=C(C(=O)N1CCCC1c1nc(-c2ccc(-c3ccc(-c4c[nH]c([C@@H]5CCCN5C(=O)C(=O)N5CCC(F)(F)CC5)n4)cc3)cc2)c[nH]1)N1CCC(F)(F)CC1` (stereo partly shown) [Compound W-189], the “Fold-Synergistic 1a (Q30E)” value was over 100 fold.

For the origin of these results see patent US20160158200A1, “Combinations of Hepatitis C Virus Inhibitors” (priority 2013, published 2016).
